Data published in US10202580B2, “Adult oligodendrocyte-type 2 astrocyte progenitor cell production method” (Japan Science and Technology Agency, priority 2014, dated 2019).

System: proliferating OPC
Assay: Number of cell divisions per colony in TH- or RA-containing medium, oxygen 1.5% by volume (Example 3)
Type: cell-based, rat
Settings: RA 1 ng/mL; 1.5% O2; 12 days
Protocol: In addition, unless specifically indicated otherwise, the proliferating OPC used in the following examples were isolated from the optic nerves of 7-day-old rats (P7) in accordance with the immunopanning method of Barres, et al. (Barres, et al., Cell, 1992, Vol. 70, p. 31-46), and the purity thereof (percentage of proliferating OPC relative to all cells) was 99.9% or more.
Proliferating OPC were cultured in medium to which was added thyroid hormone or medium to which was added retinoic acid in an environment having an oxygen concentration of 1.5% by volume followed by investigating the effect of retinoic acid […] on the proliferating OPC.
Six glass bottom culture dishes having a diameter of 12 mm and-coated with PDL were prepared by seeding with 300 proliferating OPC per culture disk, followed by culturing for 12 days at 37° C. in an environment having an oxygen concentration of 1.5% by volume and carbon dioxide concentration of 5% by volume. […]
Following completion of culturing, the numbers of cells that formed colonies were respectively counted and the number of cell divisions was determined for each colony. […]

Compound: CC1=C(/C=C/C(C)=C/C=C/C(C)=C/C(=O)O)C(C)(C)CCC1 [RA, all-trans retinoic acid]
- effect on proliferating OPC in a low oxygen environment: able to interrupt proliferation of proliferating OPC and induce differentiation to adult OPC
